Laboratory results: the NIST ThermoML archive (doi:10.1016/j.fluid.2012.08.030)

Assays:
[1] = Liquid; for mass density: 101 kPa, Vibrating tube method; for vapor or sublimation pressure: Ebulliometric method (Recirculating still)
[2] = xn = mol fraction of the nth substance listed; conditions: 101 kPa, Liquid, Vibrating tube method

COCCO [2-methoxyethan-1-ol]
[1]
Conditions	mass density [kg/m3]	vapor or sublimation pressure [kPa]
303.15 K	955.74	–
308.15 K	951.14	–
313.15 K	946.25	–
318.15 K	941.59	–
364.15 K	–	28.1
368.84 K	–	34.2
373.48 K	–	41.3
377.22 K	–	47.9
380.17 K	–	53.7
383.3 K	–	60.5
386.66 K	–	68.6
389.59 K	–	76.4
391.28 K	–	81.2
393.75 K	–	88.7
395.78 K	–	95.3

COCCO [2-methoxyethan-1-ol] + CN1CCCC1=O
mass density [kg/m3], [2]
Conditions	303.15 K	308.15 K	313.15 K	318.15 K
x2 = 0	955.74	951.14	946.25	941.59
x2 = 0.084	965.64	961.46	957.05	952.92
x2 = 0.171	975.06	971.25	967.28	963.59
x2 = 0.261	983.98	980.47	976.83	973.49
x2 = 0.354	992.29	989	985.62	982.52
x2 = 0.451	999.91	996.77	993.52	990.55
x2 = 0.552	1006.73	1003.64	1000.44	997.46
x2 = 0.657	1012.64	1009.49	1006.19	1003.04
x2 = 0.767	1017.5	1014.17	1010.64	1007.15
x2 = 0.881	1021.17	1017.52	1013.58	1009.56
x2 = 0.916	1022	1018.23	1014.14	1009.93
x2 = 0.94	1022.5	1018.64	1014.43	1010.07
x2 = 0.97	1023.01	1019.04	1014.68	1010.13
x2 = 0.988	1023.3	1019.24	1014.78	1010.1

CN1CCCC1=O [N-methylpyrrolidone]
[1]
Conditions	mass density [kg/m3]	vapor or sublimation pressure [kPa]
303.15 K	1023.45	–
308.15 K	1019.34	–
313.15 K	1014.82	–
318.15 K	1010.06	–
430.09 K	–	28.1
436.5 K	–	34.2
442.88 K	–	41.3
448.05 K	–	47.9
452.13 K	–	53.7
456.48 K	–	60.5
461.17 K	–	68.6
465.29 K	–	76.4
467.66 K	–	81.2
471.15 K	–	88.7
474.01 K	–	95.3

CN1CCCC1=O [N-methylpyrrolidone] + CCCCOCCO
[2], x1 = 1
Conditions	mass density [kg/m3]
303.15 K	1023.45
308.15 K	1019.34
313.15 K	1014.82
318.15 K	1010.06

CN1CCCC1=O [N-methylpyrrolidone] + CCOCCO
[2], x1 = 1
Conditions	mass density [kg/m3]
303.15 K	1023.45
308.15 K	1019.34
313.15 K	1014.82
318.15 K	1010.06

CN1CCCC1=O [N-methylpyrrolidone] + COCCO
[2], x1 = 1
Conditions	mass density [kg/m3]
303.15 K	1023.45
308.15 K	1019.34
313.15 K	1014.82
318.15 K	1010.06
